# From US20150175655A1 (priority 2012, published 2015)
# pKi: −log10 of the molar value.
# Molecular target: T1, NS3 genotype 3a protease (UniProt Q81258)
# T1 construct: Purified NS3 protease domain (amino acids 1-181) of the genotype 1b and 3a virus were generated as above; fused on or other part: N-terminal hexahistidine tag and rTEV protease cleavage site (vector p28-N6H-Tev-NS3(181)3)
# T1 sequence (Q81258 1033-1663): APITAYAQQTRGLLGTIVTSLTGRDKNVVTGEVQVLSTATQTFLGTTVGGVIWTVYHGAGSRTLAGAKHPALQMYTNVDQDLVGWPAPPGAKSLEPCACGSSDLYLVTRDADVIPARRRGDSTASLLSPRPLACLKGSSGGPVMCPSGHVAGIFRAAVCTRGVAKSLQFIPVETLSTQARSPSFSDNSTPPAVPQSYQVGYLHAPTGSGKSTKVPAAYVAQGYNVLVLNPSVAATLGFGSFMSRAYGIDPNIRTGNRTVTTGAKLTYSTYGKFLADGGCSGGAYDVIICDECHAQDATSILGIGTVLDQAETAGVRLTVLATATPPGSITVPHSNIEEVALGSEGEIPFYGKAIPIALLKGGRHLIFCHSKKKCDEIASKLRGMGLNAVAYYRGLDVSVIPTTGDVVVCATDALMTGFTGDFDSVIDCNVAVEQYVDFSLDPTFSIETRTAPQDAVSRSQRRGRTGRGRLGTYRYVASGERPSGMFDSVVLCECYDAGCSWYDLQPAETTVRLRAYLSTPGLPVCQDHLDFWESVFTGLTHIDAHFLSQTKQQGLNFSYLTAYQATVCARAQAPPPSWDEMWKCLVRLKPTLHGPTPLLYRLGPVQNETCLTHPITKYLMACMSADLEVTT
# Test: Ki determination, NS3 protease genotype 3a (fluorogenic depsipeptide substrate)
# Format: biochemical, hepatitis C virus
# Conditions: 200 pM enzyme, 20 μM NS4A peptide, 2 μM substrate, read-out: Ki 3A
# Text: The coding sequences for the genotype 3 HCV protease domain was amplified by RT-PCR using a Titan One Tube RT-PCR Kit (Roche, Indianapolis, Ind.) and RNA extracted from HCV-positive human serum (BBI Diagnostics, MA) using a QIAmp UltraSens Virus Kit (Qiagen, Valencia, Calif.). 5′ PCR primers were designed to encode N-terminal hexahistidine tags and to insert in-frame rTEV protease cleavage sites into the NS3 protease coding sequences. The resulting DNA fragments were cloned into pET28 yielding the expression vectors p28-N6H-Tev-NS3(181)1a and p28-N6H-Tev-NS3(181)3, respectively.
# BL21AI bacteria (Invitrogen, Carlsbad, Calif.) were transformed with genotype 1b or 3 NS3 expression vectors and used to inoculate a 20 L fermentation vessel (Sartorius BBI System Inc., Bethlehem, Pa.), containing 18 L of fresh 2YT medium supplemented with 50 μg/mL kanamycin. When cell densities reached an OD600 of 1, the temperature of the cultures was reduced from 37° C. to 28° C. and induction was immediately initiated by the addition of 30 μM ZnSO4, 14 mM L-arabinose and 1 mM Isopropyl β-D-thiogalactoside (IPTG) final concentrations. Cells were harvested by centrifugation four hours post-induction and were stored as frozen pellets at −80° C. prior to NS3 protein purification.
# Bacterial pellets collected from the expression of genotype 3 HCV NS3 protease were homogenized in Lysis Buffer (25 mM tris, pH 7.5 buffer containing 150 mM NaCl and 1 mM phenylmethanesulfonyl fluoride (PMSF)) and passed through a microfluidizer at 18,000 pounds/in^2. Homogenized cell lysates were centrifuged at 30,000×g for 30 minutes at 4° C. The resulting P1 pellets were washed with Wash Buffer I (25 mM tris, pH 7.5 containing 1% CHAPS) followed by centrifugation at 10,000×g for 30 minutes at 4° C. […] The resulting P3 pellets were resuspended in Solubilization Buffer (20 ml of 25 mM tris, pH 7.5 containing 150 mM NaCl and 8 M urea) and incubated at 4° C. for one hour. Solubilized proteins were passed through a 0.45 micron filter. Protein concentrations were measured and the solutions were adjusted to 40 mM DTT, incubated for 30 minutes at 4° C. and then quickly diluted into Refolding Buffer (25 mM tris, pH 8.5, 0.8 M Guanidine-HCl, 0.4 M L-Arginine, 10 mM ZnSO4) while stirring. Protein solutions were incubated at 4° C. overnight to allow refolding. Refolded proteases were centrifuged at 30,000×g for 10 minutes to remove residual precipitates. Final protein concentrations were then measured and the NS3 proteases were aliquoted, snap frozen in liquid nitrogen and stored at −80° C.
# Purified NS3 protease domain (amino acids 1-181) of the genotype 1b and 3a virus were generated as above. The internally quenched fluorogenic depsipeptide substrate Ac-DED(Edans)-EEAbuψ[COO]ASK(Dabcyl)-NH2 and a synthetic peptide containing the hydrophobic core residues of the NS4A protein cofactor ([…]; NS4A peptide) were obtained from Anaspec, Inc. (San Jose, Calif.). Other chemicals and biochemicals were of reagent grade or better and were purchased from standard suppliers.
# Reactions were run at room temperature in buffer consisting of 50 mM HEPES, 40% glycerol, 0.05% Triton X-100, 10 mM DTT, and 10% DMSO. The final assay solutions contained 50 pM NS3 genotype 1b protease or 200 pM genotype 3a protease, 20 μM NS4A peptide, and 4 μM substrate (genotype 1 b) or 2 μM substrate (genotype 3a). Inhibitor concentrations varied from 100 nM to 5 pM in 3-fold dilutions, and no-inhibitor controls were included.
# Compound dilutions were made in DMSO at 20× final concentration. Reaction mixtures were prepared in 96-well assay plates. A solution of enzyme and NS4A peptide in assay buffer (25 μL volume with both reagents at 4× final concentration) was mixed with 45 μL assay buffer and 5 μL of either inhibitor or DMSO, and pre-incubated at room temperature for 1 hour. The reaction was started by addition of 25 μL substrate solution at 4× final concentration. […]
row,SMILES,pKi
1,"CC[C@@H]1[C@@H]2CN(C(=O)[C@H](C(C)(C)C)NC(=O)O[C@@H]3C[C@H]3CCCCCc3nc4ccc(OC)cc4nc3O2)[C@@H]1C(=O)N[C@]1(C(=O)NS(=O)(=O)C2(F)CC2)C[C@H]1C(F)F [Example 74, (1aR,5S,8S,9S,10R,22aR)-5-tert-butyl-N-[(1R,2R)-2-(difluoromethyl)-1-{[(1-fluorocyclopropyl)sulfonyl]carbamoyl}cyclopropyl]-9-ethyl-14-methoxy-3,6-dioxo-1,1a,3,4,5,6,9,10,18,19,20,21,22,22a-tetradecahydro-8H-7,10-methanocyclopropa[18,19][1,10,3,6]dioxadiazacyclononadecino[11,12-b]quinoxaline-8-carboxamide]",9.92
2,"CC[C@@H]1[C@@H]2CN(C(=O)[C@H](C(C)(C)C)NC(=O)O[C@@H]3C[C@H]3CCCCC(F)(F)c3nc4ccccc4nc3O2)[C@@H]1C(=O)N[C@]1(C(=O)NS(=O)(=O)C2CC2)C[C@H]1C(F)F [Example 53, (1aR,5S,8S,9S,10R,22aR)-5-tert-butyl-N-[(1R,2R)-1-[(cyclopropylsulfonyl)carbamoyl]-2-(difluoromethyl)cyclopropyl]-9-ethyl-18,18-difluoro-3,6-dioxo-1,1a,3,4,5,6,9,10,18,19,20,21,22,22a-tetradecahydro-8H-7,10-methanocyclopropa[18,19][1,10,3,6]dioxadiazacyclononadecino[11,12-b]quinoxaline-8-carboxamide]",10.05
3,"CC[C@@H]1[C@@H]2CN(C(=O)[C@H](C(C)(C)C)NC(=O)O[C@]3(C)CCC[C@H]3CCCCCc3nc4ccc(OC)cc4nc3O2)[C@@H]1C(=O)N[C@]1(C(=O)NS(=O)(=O)C2(C)CC2)C[C@H]1CCF [Example 52, (3aR,7S,10S,11S,12R,24aR)-7-tert-butyl-11-ethyl-N-[(1R,2S)-2-(2-fluoroethyl)-1-{[(1-methylcyclopropyl)sulfonyl]carbamoyl}cyclopropyl]-16-methoxy-3a-methyl-5,8-dioxo-1,2,3,3a,5,6,7,8,11,12,20,21,22,23,24,24a-hexadecahydro-10H-9,12-methanocyclopenta[18,19][1,10,3,6]dioxadiazacyclononadecino[11,12-b]quinoxaline-10-carboxamide]",8.89
4,"COc1ccc2nc3c(nc2c1)O[C@H]1CN(C(=O)[C@H](C(C)(C)C)NC(=O)O[C@@]2(C)C[C@@H]2CCCCC3)[C@H](C(=O)N[C@]2(C(=O)NS(=O)(=O)C3(C)CC3)C[C@H]2C(F)F)[C@@H]1C [Example 45, (1aS,5S,8S,9S,10R,22aS)-5-tert-butyl-N-[(1R,2R)-2-(difluoromethyl)-1-{[(1-methylcyclopropyl)sulfonyl]carbamoyl}cyclopropyl]-14-methoxy-1a,9-dimethyl-3,6-dioxo-1,1a,3,4,5,6,9,10,18,19,20,21,22,22a-tetradecahydro-8H-7,10-methanocyclopropa[18,19][1,10,3,6]dioxadiazacyclononadecino[11,12-b]quinoxaline-8-carboxamide]",9.32
5,"CC[C@@H]1[C@@H]2CN(C(=O)[C@H](C(C)(C)C)NC(=O)O[C@@H]3C[C@H]3CCCCCc3nc4ccc(OC)cc4nc3O2)[C@@H]1C(=O)N[C@]1(C(=O)NS(=O)(=O)C2CC2)C[C@H]1C(F)F [Example 2, (1aR,5S,8S,9S,10R,22aR)-5-tert-butyl-N-[(1R,2R)-1-[(cyclopropylsulfonyl)carbamoyl]-2-(difluoromethyl)cyclopropyl]-9-ethyl-14-methoxy-3,6-dioxo-1,1a,3,4,5,6,9,10,18,19,20,21,22,22a-tetradecahydro-8H-7,10-methanocyclopropa[18,19][1,10,3,6]dioxadiazacyclononadecino[11,12-b]quinoxaline-8-carboxamide]",10.40
6,"CC[C@@H]1[C@@H]2CN(C(=O)[C@H](C(C)(C)C)NC(=O)O[C@@H]3C[C@H]3CCCCCc3nc4ccc(OC)cc4nc3O2)[C@@H]1C(=O)N[C@]1(C(=O)NS(=O)(=O)C2(Cl)CC2)C[C@H]1C(F)F [Example 75, (1aR,5S,8S,9S,10R,22aR)-5-tert-butyl-N-[(1R,2R)-1-{[(1-chlorocyclopropyl)sulfonyl]carbamoyl}-2-(difluoromethyl)cyclopropyl]-9-ethyl-14-methoxy-3,6-dioxo-1,1a,3,4,5,6,9,10,18,19,20,21,22,22a-tetradecahydro-8H-7,10-methanocyclopropa[18,19][1,10,3,6]dioxadiazacyclononadecino[11,12-b]quinoxaline-8-carboxamide]",9.92
7,"COc1ccc2nc3c(nc2c1)O[C@H]1CN(C(=O)[C@H](C(C)(C)C)NC(=O)O[C@@H]2C[C@@H]4C[C@@H]4[C@H]2CCCCC3(F)F)[C@H](C(=O)N[C@]2(C(=O)NS(=O)(=O)C3(C)CC3)C[C@H]2C(F)F)[C@@H]1C [Example 81, (1aS,2aR,6S,9S,10S,11R,23aR,23bS)-6-tert-butyl-N-[(1R,2R)-2-(difluoromethyl)-1-{[(1-methylcyclopropyl)sulfonyl]carbamoyl}cyclopropyl]-19,19-difluoro-15-methoxy-10-methyl-4,7-dioxo-1a,2,2a,4,5,6,7,10,11,19,20,21,22,23,23a,23b-hexadecahydro-1H,9H-8,11-methanocyclopropa[4′,5′]cyclopenta[1′,2′:18,19][1,10,3,6]dioxadiazacyclononade cino[11,12-b]quinoxaline-9-carboxamide]",10.30

# Same assay, conditions: read-out: Ki 3A, 200 pM enzyme, 20 μM NS4A peptide, 2 μM substrate
row,SMILES,pKi
1,"CC[C@@H]1C[C@]1(NC(=O)[C@@H]1[C@H](C)[C@@H]2CN1C(=O)[C@H](C(C)(C)C)NC(=O)O[C@@H]1C[C@H]1CCCCCc1nc3ccc(OC)cc3nc1O2)C(=O)NS(=O)(=O)C1CC1 [Example 20, (1aR,5S,8S,9S,10R,22aR)-5-tert-butyl-N-{(1R,2R)-1-[(cyclopropylsulfonyl)carbamoyl]-2-ethylcyclopropyl}-14-methoxy-9-methyl-3,6-dioxo-1,1a,3,4,5,6,9,10,18,19,20,21,22,22a-tetradecahydro-8H-7,10-methanocyclopropa[18,19][1,10,3,6]dioxadiazacyclononadecino[11,12-b]quinoxaline-8-carboxamide]",9.28
